How the values were obtained:
[1] = tested on: cDDP^R cell lines (2008-cp, A172-cp and SR2) and cDDP^S cell lines (2008, A172 and SCLC); assay: Sensitization to platinum drugs in the absence or presence of copper chelator; format: cell-based, human; details: copper chelator treated cDDP^R cells with enhanced hCtr1 expression
Description: Furthermore, ^64Cu uptake and platinum (Pt) uptake, and sensitization to cisplatin and carboplatin in three pairs of cDDP^R cell lines (2008-cp, A172-cp and SR2) and cDDP^S cell lines (2008, A172 and SCLC) in the absence or presence of copper chelator (5 μmol/L of TM, 100 μmol/L of trientine or 100 μmol/L of D-pen) were evaluated.

ovarian cancer cells = assay: Cisplatin cytotoxicity (IC50) in the presence or absence of copper histidine; format: cell-based; details: copper ions 3000 μM, 24 hours
Description: The cytotoxicity of shControl cells (shControl), IMP3 knockdown cells (shIMP3-268, shIMP3-596) and Lin28B knockdown cells (shLin28B-860, shLin28B-508) in response to cisplatin was determined using the WST-1 (TaKaRa) assay. In brief, 3×10^4 ovarian cancer cells/well were grown in 96-well plates overnight and treated with cisplatin at various concentrations in the presence or absence of copper ions (3000 μM) (Copper Histidine) for 24 hours. After incubation, the […] was used to determine the IC50 of cisplatin. Dose-inhibition curves and the IC50 of cisplatin were calculated for the different cell types using commercial software (SigmaPlot V10.0, Systat Software, Inc., Richmond, Calif., USA). A copper histidine solution was prepared. In brief, copper(II) chloride (0.106 g; Sigma-Aldrich) and L-histidine (0.244 g; Sigma-Aldrich) were dissolved in 90 ml of sterile 0.9% sodium chloride, titrated to a pH of […] to 7.40, and then filtered through a 0.22-μm filter before use.

| SMILES | sensitivity of cells to the platinum drug [1] | IC50 of cisplatin when combined with copper histidine (ovarian cancer cells; IMP3- or Lin28B-knockdown cells, p<0.05) | IC50 of cisplatin when combined with copper histidine (ovarian cancer cells; shControl cells) |
| --- | --- | --- | --- |
| N.N.O=C([O-])C1(C(=O)[O-])CCC1.[Pt+2] [carboplatin] | increased sensitivity | – | – |
| O=C1[O][Pt]2([NH][C@@H]3CCCC[C@H]3[NH]2)[O]C1=O [oxaliplatin] | not | – | – |
| N[C@@H](Cc1c[nH]cn1)C(=O)O.[Cu] [copper histidine] | – | increased | no significant (NS) effect |
| N.N.[Cl][Pt][Cl] [cisplatin] | higher increases | – | – |

— patent publication US9770462B2, “Method of treating ovarian, tubal and peritoneal cancer” (NATIONAL CHENG KUNG UNIVERSITY, priority 2015, dated 2017)
